Assay results reported in patent US20230117324A1, “OXAZINE MONOACYLGLYCEROL LIPASE (MAGL) INHIBITORS” (Hoffmann-La Roche Inc., priority 2018, published 2023).
pIC50: −log10 of the molar value.

target: T1, MAGL (Homo sapiens, UniProt Q99685); test: MAGL inhibition, 2-AG assay (hydrolysis of 2-arachidonoylglycerol, arachidonic acid by mass spectrometry); format: biochemical; conditions: 2-AG assay (footnote [b])
T1 sequence (Q99685 1-303): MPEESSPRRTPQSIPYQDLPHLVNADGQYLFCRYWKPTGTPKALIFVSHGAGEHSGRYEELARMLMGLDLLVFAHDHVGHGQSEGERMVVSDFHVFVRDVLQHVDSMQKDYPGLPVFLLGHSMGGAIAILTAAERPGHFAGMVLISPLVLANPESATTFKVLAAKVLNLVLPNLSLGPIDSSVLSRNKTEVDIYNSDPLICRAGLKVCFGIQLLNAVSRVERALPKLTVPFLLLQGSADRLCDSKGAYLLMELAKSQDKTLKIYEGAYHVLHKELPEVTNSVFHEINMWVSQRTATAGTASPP
In short: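 Human MAGL […] was preincubated 15 min at RT with compound ([…], 3-fold steps) in 50 mM Tris, 1 mM EDTA, 0.01% Tween. 2-AG (8 μM) was then added for 30 min at RT. Arachidonic acid was quantified by RapidFire SPE–triple quadrupole MS in negative ESI as its ratio to a d8-arachidonic acid standard.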

SMILES	pIC50
O=C1CO[C@H]2CCN(C(=O)N3CC(C(O)(c4ccc(F)cc4)c4ccc(F)cc4)C3)C[C@H]2N1 [Example 54, (4aR,8aS)-6-(3-(Bis(4-fluorophenyl)(hydroxy)methyl)azetidine-1-carbonyl)hexahydro-2H-pyrido[4,3-b][1,4]oxazin-3(4H)-one]	6.09
O=C1CO[C@H]2CCN(C(=O)N3CCC(C(COCC(F)(F)F)c4ccc(F)cc4)CC3)C[C@H]2N1 (stereo partly drawn) [Example 56, (4aR,8aS)-6-(4-(1-(4-Fluorophenyl)-2-(2,2,2-trifluoroethoxy)ethyl)piperidine-1-carbonyl)hexahydro-2H-pyrido[4,3-b][1,4]oxazin-3(4H)-one]	7.68
O=C1CO[C@H]2CCN(C(=O)N3CCC(c4ccnc(C5CC5)c4)CC3)C[C@H]2N1 [Example 61, (4aR,8aS)-6-(4-(2-Cyclopropylpyridin-4-yl)piperidine-1-carbonyl)hexahydro-2H-pyrido[4,3-b][1,4]oxazin-3(4H)-one]	6.24
CC(Oc1ccc(C(F)(F)F)cc1F)C1CN(C(=O)N2CC[C@@H]3OCC(=O)N[C@@H]3C2)C1 (stereo partly drawn) [Example 91, (4aR,8aS)-6-(3-(1-(2-Fluoro-4-(trifluoromethyl)phenoxy)ethyl)azetidine-1-carbonyl)hexahydro-2H-pyrido[4,3-b][1,4]oxazin-3(4H)-one]	7.82
CC(OC1CCN(C(=O)N2CC[C@@H]3OCC(=O)N[C@@H]3C2)CC1)c1ccc(C(F)(F)F)cc1 (stereo partly drawn) [Example 93, (4aR,8aS)-6-[4-[1-[4-(Trifluoromethyl)phenyl]ethoxy]piperidine-1-carbonyl]-4,4a,5,7,8,8a-hexahydropyrido [4,3-b][1,4]oxazin-3-one]	7.14
O=C1CO[C@H]2CCN(C(=O)N3CCC(C(c4ccc(F)cc4)c4nc(C(F)(F)F)no4)CC3)C[C@H]2N1 (stereo partly drawn) [Example 102, (4aR,8aS)-6-(4-((4-Fluorophenyl)(3-(trifluoromethyl)-1,2,4-oxadiazol-5-yl)methyl)piperidine-1-carbonyl)hexahydro-2H-pyrido[4,3-b][1,4]oxazin-3(4H)-one]	8.30
O=C1CO[C@H]2CCN(C(=O)N3CC(c4ccc(Br)cc4)C3)C[C@H]2N1 [Example 110, (4aR,8aS)-6-[3-(4-bromophenyl)azetidine-1-carbonyl]-4,4a,5,7,8,8a-hexahydropyrido[4,3-b][1,4]oxazin-3-one]	7.54
O=C1CO[C@H]2CCN(C(=O)N3CC(c4ccc(-c5ccccc5Cl)cc4)C3)C[C@H]2N1 [Example 112, (4aR,8aS)-6-(3-(2′-Chloro-[1,1′-biphenyl]-4-yl)azetidine-1-carbonyl)hexahydro-2H-pyrido[4,3-b][1,4]oxazin-3(4H)-one]	10.00
O=C1CO[C@H]2CCN(C(=O)N3CC(c4ccc(-c5ccccc5OC(F)(F)F)cc4)C3)C[C@H]2N1 [Example 121, (4aR,8aS)-6-(3-(2′-(Trifluoromethoxy)-[1,1′-biphenyl]-4-yl)azetidine-1-carbonyl)hexahydro-2H-pyrido[4,3-b][1,4]oxazin-3(4H)-one]	10.52
O=C1CO[C@H]2CCN(C(=O)N3CC(F)(c4ccc(Br)cc4)C3)C[C@H]2N1 [Example 122, (4aR,8aS)-6-(3-(4-Bromophenyl)-3-fluoroazetidine-1-carbonyl)hexahydro-2H-pyrido[4,3-b][1,4]oxazin-3(4H)-one]	7.05
N#Cc1ccccc1-c1ccc(C2CN(C(=O)N3CC[C@@H]4OCC(=O)N[C@@H]4C3)C2)cc1 [Example 127, 4′-(1-((4aR,8aS)-3-Cxooctahydro-2H-pyrido[4,3-b][1,4]oxazine-6-carbonyl)azetidin-3-yl)-[1,1′-biphenyl]-2-carbonitrile]	9.30

Further compounds by rising pIC50, results first:

pIC50	SMILES
6.24	O=C1CO[C@H]2CCN(C(=O)N3CCC(c4ccnc5c4CCCC5)CC3)C[C@H]2N1 [Example 107, (4aR,8aS)-6-(4-(5,6,7,8-Tetrahydroquinolin-4-yl)piperidine-1-carbonyl)hexahydro-2H-pyrido[4,3-b][1,4]oxazin-3(4H)-one]
6.38	O=C1CO[C@H]2CCN(C(=O)N3CC(C(F)(c4ccc(F)cc4)c4ccc(F)cc4)C3)C[C@H]2N1 [Example 55, (4aR,8aS)-6-(3-(Fluorobis(4-fluorophenyl)methyl)azetidine-1-carbonyl)hexahydro-2H-pyrido[4,3-b][1,4]oxazin-3(4H)-one]
6.38	O=C1CO[C@H]2CCN(C(=O)N3CCN(C(c4ccc(F)cc4F)C(F)(F)F)CC3)C[C@H]2N1 (stereo partly drawn) [Example 53, (4aR,8aS)-6-(4-(1-(2,4-Difluorophenyl)-2,2,2-trifluoroethyl)piperazine-1-carbonyl)hexahydro-2H-pyrido[4,3-b][1,4]oxazin-3(4H)-one]
6.65	O=C1CO[C@H]2CCN(C(=O)N3CC(O)(c4ccc(Br)cc4)C3)C[C@H]2N1 [Example 123, (4aR,8aS)-6-(3-(4-Bromophenyl)-3-hydroxyazetidine-1-carbonyl)hexahydro-2H-pyrido[4,3-b][1,4]oxazin-3(4H)-one]
6.66	Cc1cc(C2CCN(C(=O)N3CC[C@@H]4OCC(=O)N[C@@H]4C3)CC2)cnc1C(F)(F)F [Example 101, (4aR,8aS)-6-(4-(5-Methyl-6-(trifluoromethyl)pyridin-3-yl)piperidine-1-carbonyl)hexahydro-2H-pyrido[4,3-b][1,4]oxazin-3(4H)-one]
6.81	O=C1CO[C@H]2CCN(C(=O)N3CC(C(c4ccccc4)c4ccccc4)C3)C[C@H]2N1 [Example 86, (4aR,8aS)-6-(3-Benzhydrylazetidine-1-carbonyl)hexahydro-2H-pyrido[4,3-b][1,4]oxazin-3(4H)-one]
6.94	CC(c1ccc(C(F)(F)F)cc1)C1CN(C(=O)N2CC[C@@H]3OCC(=O)N[C@@H]3C2)C1 (stereo partly drawn) [Example 83, (4aR,8aS)-6-[3-[1-[4-(Trifluoromethyl)phenyl]ethyl]azetidine-1-carbonyl]-4,4a,5,7,8,8a-hexahydropyrido[4,3-b][1,4]oxazin-3-one]
6.95	CC1(c2ccc(Br)cc2)CN(C(=O)N2CC[C@@H]3OCC(=O)N[C@@H]3C2)C1 [Example 124, (4aR,8aS)-6-(3-(4-Bromophenyl)-3-methylazetidine-1-carbonyl)hexahydro-2H-pyrido[4,3-b][1,4]oxazin-3(4H)-one]
7.31	CC(OC1CN(C(=O)N2CC[C@@H]3OCC(=O)N[C@@H]3C2)C1)c1ccc(C(F)(F)F)cc1 (stereo partly drawn) [Example 90, (4aR,8aS)-6-[3-[1-[4-(Trifluoromethyl)phenyl]ethoxy]azetidine-1-carbonyl]-4,4a,5,7,8,8a-hexahydropyrido[4,3-b][1,4]oxazin-3-one]
7.35	COC1CN(c2ccc(C3CN(C(=O)N4CC[C@@H]5OCC(=O)N[C@@H]5C4)C3)cc2)C1 [Example 128, (4aR,8aS)-6-(3-(4-(3-Methoxyazetidin-1-yl)phenyl)azetidine-1-carbonyl)hexahydro-2H-pyrido[4,3-b][1,4]oxazin-3(4H)-one]
7.70	CC(Oc1ccc(C(F)(F)F)cc1)C1CN(C(=O)N2CC[C@@H]3OCC(=O)N[C@@H]3C2)C1 (stereo partly drawn) [Example 92, (4aR,8aS)-6-(3-(1-(4-(Trifluoromethyl)phenoxy)ethyl)azetidine-1-carbonyl)hexahydro-2H-pyrido[4,3-b][1,4]oxazin-3(4H)-one]
8.15	O=C1CO[C@H]2CCN(C(=O)N3CC(c4ccc(OC(F)(F)F)cc4)C3)C[C@H]2N1 [Example 120, (4aR,8aS)-6-[3-[4-(Trifluoromethoxy)phenyl]azetidine-1-carbonyl]-4,4a,5,7,8,8a-hexahydropyrido[4,3-b][1,4]oxazin-3-one]
8.52	O=C1CO[C@H]2CCN(C(=O)N3CCC(C(Oc4ccc(F)cc4Cl)C(F)(F)F)CC3)C[C@H]2N1 (stereo partly drawn) [Example 81, (4aR,8aS)-6-(4-(1-(2-Chloro-4-fluorophenoxy)-2,2,2-trifluoroethyl)piperidine-1-carbonyl)hexahydro-2H-pyrido[4,3-b][1,4]oxazin-3(4H)-one]
9.40	O=C1CO[C@H]2CCN(C(=O)N3CC(c4ccc(-c5ccc(Cl)cc5)cc4)C3)C[C@H]2N1 [Example 111, (4aR,8aS)-6-(3-(4′-Chloro-[1,1′-biphenyl]-4-yl)azetidine-1-carbonyl)hexahydro-2H-pyrido[4,3-b][1,4]oxazin-3(4H)-one]
9.52	O=C1CO[C@H]2CCN(C(=O)N3CC(c4ccc(-c5ccc(F)cc5F)cc4)C3)C[C@H]2N1 [Example 126, (4aR,8aS)-6-(3-(2′,4′-Difluoro-[1,1′-biphenyl]-4-yl)azetidine-1-carbonyl)hexahydro-2H-pyrido[4,3-b][1,4]oxazin-3(4H)-one]
10.40	O=C1CO[C@H]2CCN(C(=O)N3CC(c4ccc(-c5ccc(Cl)cc5Cl)cc4)C3)C[C@H]2N1 [Example 113, (4aR,8aS)-6-(3-(2′,4′-Dichloro-[1,1′-biphenyl]-4-yl)azetidine-1-carbonyl)hexahydro-2H-pyrido[4,3-b][1,4]oxazin-3(4H)-one]
10.40	O=C1CO[C@H]2CCN(C(=O)N3CC(c4ccc(-c5ccccc5C(F)(F)F)cc4)C3)C[C@H]2N1 [Example 125, (4aR,8aS)-6-(3-(2′-(Trifluoromethyl)-[1,1′-biphenyl]-4-yl)azetidine-1-carbonyl)hexahydro-2H-pyrido[4,3-b][1,4]oxazin-3(4H)-one]
